{"source": "patent US20240059671A1", "about": "“TYROSINE KINASE 2 (TYK2) DEGRADATION COMPOUNDS AND METHODS OF USE” (CULLGEN (SHANGHAI), INC., priority 2020, published 2024)", "type_in_all_cases": "cell-based", "key": {"[1]": {"test_system": "JAK1, JAK2, and JAK3", "test": "Immunoblot of JAK1/2/3 protein levels in MOLT-4 cells (selectivity of TYK2 reduction)", "conditions": "MOLT-4 cells, 0.04, 0.2, 1, and 5 μM, 24 hours", "protocol": "MOLT-4 cells were treated with CPD-038, CPD-039, and CPD-040 at 0.04, 0.2, 1, and 5 μM concentrations for 24 hours.\n(§1) Rabbit anti-JAK1antibody (3344S), anti-JAK2 antibody (3230S), anti-JAK3 antibody (8827S), anti-TYK2 antibody (14193S), anti-STAT1 antibody (9167S), anti-STAT3 antibody (9139S), anti-phospho-STAT1 (Tyr701) antibody ([…]), anti-phospho-STAT3 (Tyr705) antibody (9145S), were purchased from Cell Signaling Technology; anti-β-actin antibody (ab8226) was from Abeam; HRP-conjugated anti-α-Tubulin (GNI4310-AT) antibody was purchased from GNI. Media and other cell culture reagents were purchased from Thermo Fisher.\n(§2) Cultured cells were washed with cold PBS once and lysed in cold RIPA buffer supplemented with protease inhibitors and phosphatase inhibitors (Beyotime Biotechnology). The solutions were then incubated at 4° C. for 30 minutes with gentle agitation to fully lyse cells. Cell lysates were centrifuged at 13,000 rpm for 10 minutes at 4° C. and pellets were discarded. Total protein concentrations in the lysates were determined by BCA assays (Beyotime Biotechnology). Cell lysates were mixed with Laemmli loading buffer to 1× and heated at 99° C. for 5 min. Proteins were resolved on SDS-PAGE and visualized by chemiluminescence. Images were taken by a ChemiDoc MP Imaging system (Bio-Rad). Protein bands were quantitated using the accompanied software provided by Bio-Rad."}, "[2]": {"molecular_target": "T1, TYK2 (Homo sapiens, UniProt P29597)", "T1 sequence (P29597 whole entry)": "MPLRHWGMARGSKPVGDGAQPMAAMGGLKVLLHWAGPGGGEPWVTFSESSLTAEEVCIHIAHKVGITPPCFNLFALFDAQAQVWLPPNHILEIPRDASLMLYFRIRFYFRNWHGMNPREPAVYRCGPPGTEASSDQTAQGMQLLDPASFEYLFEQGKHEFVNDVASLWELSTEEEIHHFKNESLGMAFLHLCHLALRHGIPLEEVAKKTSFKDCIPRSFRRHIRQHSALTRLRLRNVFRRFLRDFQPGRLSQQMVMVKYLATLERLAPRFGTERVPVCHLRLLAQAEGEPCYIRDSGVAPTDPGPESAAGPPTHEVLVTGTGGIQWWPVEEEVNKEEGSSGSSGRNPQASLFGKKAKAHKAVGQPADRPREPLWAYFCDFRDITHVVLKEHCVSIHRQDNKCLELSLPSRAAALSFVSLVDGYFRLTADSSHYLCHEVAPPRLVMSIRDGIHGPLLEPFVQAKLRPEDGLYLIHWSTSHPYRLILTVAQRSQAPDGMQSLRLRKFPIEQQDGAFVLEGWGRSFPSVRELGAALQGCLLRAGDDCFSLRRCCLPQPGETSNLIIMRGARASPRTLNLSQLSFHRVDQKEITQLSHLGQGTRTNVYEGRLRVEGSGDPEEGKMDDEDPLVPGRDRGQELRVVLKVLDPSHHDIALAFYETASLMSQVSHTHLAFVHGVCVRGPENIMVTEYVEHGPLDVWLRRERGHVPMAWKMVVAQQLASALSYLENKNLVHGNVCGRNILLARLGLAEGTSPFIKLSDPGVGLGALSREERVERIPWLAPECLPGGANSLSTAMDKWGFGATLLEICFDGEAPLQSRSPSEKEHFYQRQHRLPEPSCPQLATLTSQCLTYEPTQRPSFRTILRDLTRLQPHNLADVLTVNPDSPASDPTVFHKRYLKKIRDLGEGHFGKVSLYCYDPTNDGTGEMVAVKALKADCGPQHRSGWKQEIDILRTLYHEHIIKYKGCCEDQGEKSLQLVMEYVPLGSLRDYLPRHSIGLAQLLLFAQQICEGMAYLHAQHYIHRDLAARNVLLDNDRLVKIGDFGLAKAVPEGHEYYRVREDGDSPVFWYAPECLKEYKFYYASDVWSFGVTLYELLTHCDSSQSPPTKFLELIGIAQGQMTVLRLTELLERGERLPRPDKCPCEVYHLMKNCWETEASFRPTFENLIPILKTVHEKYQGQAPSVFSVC", "test": "TYK2 protein degradation in MOLT-4 cells by immunoblotting", "design": "endogenous in cells; host or cells: MOLT-4", "conditions": "24 hours; for TYK2 Degradation (0.5 μM) / TYK2 Degradation (5 μM): MOLT-4 cells; for Reduction of TYK2 protein levels over a dose range (FIG. 1): MOLT-4 cells, 0.04, 0.2, 1, and 5 μM", "method_in_brief": "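Percent TYK2 degradation came from densitometry of chemiluminescent immunoblots of RIPA lysates. Before lysis, MOLT-4 cells had been treated for 24 h with each compound at 0.5 or 5 μM.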"}, "[3]": {"molecular_target": "T1, TYK2", "test": "TYK2 protein levels in Jurkat cells by immunoblotting", "design": "endogenous in cells", "conditions": "3 or 30 nM, 16 hours", "protocol": "(§3) Jurkat cells were treated with DMSO or a dose range of heterobifunctional compounds CPD-155, CPD-158, and CPD-164 at 3 or 30 nM concentrations for 16 hours. Cells were subsequently treated with IFNα (2000 IU) for 15 min as indicated.\nas §2"}, "[4]": {"molecular_target": "T1, TYK2", "test": "TYK2 protein degradation in NOMO-1 cells by immunoblotting", "design": "endogenous in cells", "conditions": "for TYK2 Degradation (NOMO-1, 10 nM) / TYK2 Degradation (NOMO-1, 100 nM): NOMO-1 cells; for Reduction of TYK2 protein levels over a dose range (FIG. 2): NOMO-1 cells, 0.1, 1, 10, 100 and 1000 nM, 16 hours", "method_in_brief": "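Read-out was densitometry of chemiluminescent TYK2 immunoblot bands from RIPA lysates after SDS-PAGE. Before lysis, NOMO-1 cells cultured in RPMI 1640 plus 10% FBS were treated for 16 h at 0.1, 1, 10, 100 and 1000 nM.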"}, "[5]": {"test_system": "phosphorylation of STAT1 (Tyr701) and STAT3 (Tyr705)", "test": "IFNα-induced STAT1/3 phosphorylation in Jurkat cells by immunoblotting", "conditions": "3 or 30 nM, 16 hours, then IFNα (2000 IU) for 15 min", "protocol": "as §3, §1, §2"}}, "note": "“Also recorded” adds a separate entry of the source.", "data": [{"smiles": "CNC(=O)c1nnc(NC(=O)CNC(=O)CCCCCCCCC(=O)N[C@H](C(=O)N2C[C@H](O)C[C@H]2C(=O)NCc2ccc(-c3scnc3C)cc2)C(C)(C)C)cc1Nc1cccc(-c2ncn(C)n2)c1OC", "note": "[CPD-040, N1-((S)-1-((2S,4R)-4-hydroxy-2-((4-(4-methylthiazol-5-yl)benzyl)carbamoyl)pyrrolidin-1-yl)-3,3-dimethyl-1-oxobutan-2-yl)-N10-(2-((5-((2-methoxy-3-(1-methyl-1H-1,2,4-triazol-3-yl)phenyl)amino)-6-(methylcarbamoyl)pyridazin-3-yl)amino)-2-oxoethyl)decanediamide]", "values": [{"measurement": "Selectivity of TYK2 protein reduction over JAK1, JAK2, and JAK3 (FIG. 1)", "setting": "[1]", "value": "very selective at the reduction protein levels of TYK2 over JAK1, JAK2, and JAK3; also recorded: highly selective at the degradation of TYK2 over JAKT/2/3 proteins"}, {"measurement": "TYK2 Degradation (0.5 μM)", "setting": "[2]", "value": 60, "unit": "%"}, {"measurement": "TYK2 Degradation (5 μM)", "setting": "[2]", "value": 60, "unit": "%"}, {"measurement": "Reduction of TYK2 protein levels over a dose range (FIG. 1)", "setting": "[2]", "value": "concentration-dependently reduced the TYK2 proteins levels; also recorded: reduce TYK2 protein levels in a concentration-dependent manner"}]}, {"smiles": "CNC(=O)c1nnc(NC(=O)CNC(=O)CCCCCCCC(=O)N[C@H](C(=O)N2C[C@H](O)C[C@H]2C(=O)NCc2ccc(-c3scnc3C)cc2)C(C)(C)C)cc1Nc1cccc(-c2ncn(C)n2)c1OC", "note": "[CPD-039, N1-((S)-1-((2S,4R)-4-hydroxy-2-((4-(4-methylthiazol-5-yl)benzyl)carbamoyl)pyrrolidin-1-yl)-3,3-dimethyl-1-oxobutan-2-yl)-N9-(2-((5-((2-methoxy-3-(1-methyl-1H-1,2,4-triazol-3-yl)phenyl)amino)-6-(methylcarbamoyl)pyridazin-3-yl)amino)-2-oxoethyl)nonanediamide]", "values": [{"measurement": "Selectivity of TYK2 protein reduction over JAK1, JAK2, and JAK3 (FIG. 1)", "setting": "[1]", "value": "very selective at the reduction protein levels of TYK2 over JAK1, JAK2, and JAK3; also recorded: highly selective at the degradation of TYK2 over JAKT/2/3 proteins"}, {"measurement": "TYK2 Degradation (0.5 μM)", "setting": "[2]", "value": 60, "unit": "%"}, {"measurement": "TYK2 Degradation (5 μM)", "setting": "[2]", "value": 90, "unit": "%"}, {"measurement": "Reduction of TYK2 protein levels over a dose range (FIG. 1)", "setting": "[2]", "value": "concentration-dependently reduced the TYK2 proteins levels; also recorded: reduce TYK2 protein levels in a concentration-dependent manner"}]}, {"smiles": "CNC(=O)c1nnc(Nc2ccc(C(=O)NCCCCCNc3ccc4c(c3)C(=O)N(C3CCC(=O)NC3=O)C4=O)cn2)cc1Nc1cccc(-c2ncn(C)n2)c1OC", "note": "(centres unmarked) [CPD-164, 6-((5-((5-((2-(2,6-dioxopiperidin-3-yl)-1,3-dioxoisoindolin-5-yl)amino)pentyl)carbamoyl)pyridin-2-yl)amino)-4-((2-methoxy-3-(1-methyl-1H-1,2,4-triazol-3-yl)phenyl)amino)-N-methylpyridazine-3-carboxamide]", "values": [{"measurement": "TYK2 protein levels in Jurkat cells (FIG. 3)", "setting": "[3]", "value": "reduced levels of TYK2 proteins"}, {"measurement": "TYK2 Degradation (NOMO-1, 10 nM)", "setting": "[4]", "value": "A (A: ≥60% TYK2 degradation)"}, {"measurement": "TYK2 Degradation (NOMO-1, 100 nM)", "setting": "[4]", "value": "B (B: <60% TYK2 degradation, and >20% TYK2 degradation)"}, {"measurement": "Phosphorylation of STAT1 (Tyr701) and STAT3 (Tyr705) induced by IFNα (FIG. 3)", "setting": "[5]", "value": "concentration-dependently reduced phosphorylation of STAT1 (Tyr701) and STAT3 (Tyr705) induced by IFNα treatment; also recorded: significantly decreased STAT1/3 phosphorylation downstream of IFNα stimulation"}]}, {"smiles": "CNC(=O)c1nnc(Nc2ccc(C(=O)NCCCCCNc3cccc4c3C(=O)N(C3CCC(=O)NC3=O)C4=O)cn2)cc1Nc1cccc(-c2ncn(C)n2)c1OC", "note": "(centres unmarked) [CPD-155, 6-((5-((5-((2-(2,6-dioxopiperidin-3-yl)-1,3-dioxoisoindolin-4-yl)amino)pentyl)carbamoyl)pyridin-2-yl)amino)-4-((2-methoxy-3-(1-methyl-1H-1,2,4-triazol-3-yl)phenyl)amino)-N-methylpyridazine-3-carboxamide]", "values": [{"measurement": "TYK2 protein levels in Jurkat cells (FIG. 3)", "setting": "[3]", "value": "reduced levels of TYK2 proteins"}, {"measurement": "TYK2 Degradation (NOMO-1, 10 nM)", "setting": "[4]", "value": "A (A: ≥60% TYK2 degradation)"}, {"measurement": "TYK2 Degradation (NOMO-1, 100 nM)", "setting": "[4]", "value": "A (A: ≥60% TYK2 degradation)"}, {"measurement": "Reduction of TYK2 protein levels over a dose range (FIG. 2)", "setting": "[4]", "value": "concentration-dependently reduced the TYK2 proteins levels; also recorded: highly potent in reducing TYK2 protein levels"}, {"measurement": "Phosphorylation of STAT1 (Tyr701) and STAT3 (Tyr705) induced by IFNα (FIG. 3)", "setting": "[5]", "value": "concentration-dependently reduced phosphorylation of STAT1 (Tyr701) and STAT3 (Tyr705) induced by IFNα treatment; also recorded: significantly decreased STAT1/3 phosphorylation downstream of IFNα stimulation"}]}, {"smiles": "CNC(=O)c1nnc(NC(=O)CNC(=O)CCCCCCC(=O)N[C@H](C(=O)N2C[C@H](O)C[C@H]2C(=O)NCc2ccc(-c3scnc3C)cc2)C(C)(C)C)cc1Nc1cccc(-c2ncn(C)n2)c1OC", "note": "[CPD-038, N1-((S)-1-((2S,4R)-4-hydroxy-2-((4-(4-methylthiazol-5-yl)benzyl)carbamoyl)pyrrolidin-1-yl)-3,3-dimethyl-1-oxobutan-2-yl)-N8-(2-((5-((2-methoxy-3-(1-methyl-1H-1,2,4-triazol-3-yl)phenyl)amino)-6-(methylcarbamoyl)pyridazin-3-yl)amino)-2-oxoethyl)octanediamide]", "values": [{"measurement": "Selectivity of TYK2 protein reduction over JAK1, JAK2, and JAK3 (FIG. 1)", "setting": "[1]", "value": "very selective at the reduction protein levels of TYK2 over JAK1, JAK2, and JAK3; also recorded: highly selective at the degradation of TYK2 over JAKT/2/3 proteins"}, {"measurement": "TYK2 Degradation (0.5 μM)", "setting": "[2]", "value": 50, "unit": "%"}, {"measurement": "TYK2 Degradation (5 μM)", "setting": "[2]", "value": 90, "unit": "%"}, {"measurement": "Reduction of TYK2 protein levels over a dose range (FIG. 1)", "setting": "[2]", "value": "concentration-dependently reduced the TYK2 proteins levels; also recorded: reduce TYK2 protein levels in a concentration-dependent manner"}]}, {"smiles": "CNC(=O)c1nnc(Nc2ccc(C(=O)NCCCCCCCCNc3cccc4c3C(=O)N(C3CCC(=O)NC3=O)C4=O)cn2)cc1Nc1cccc(-c2ncn(C)n2)c1OC", "note": "(centres unmarked) [CPD-158, 6-((5-((8-((2-(2,6-dioxopiperidin-3-yl)-1,3-dioxoisoindolin-4-yl)amino)octyl)carbamoyl)pyridin-2-yl)amino)-4-((2-methoxy-3-(1-methyl-1H-1,2,4-triazol-3-yl)phenyl)amino)-N-methylpyridazine-3-carboxamide]", "values": [{"measurement": "TYK2 protein levels in Jurkat cells (FIG. 3)", "setting": "[3]", "value": "reduced levels of TYK2 proteins"}, {"measurement": "TYK2 Degradation (NOMO-1, 10 nM)", "setting": "[4]", "value": "A (A: ≥60% TYK2 degradation)"}, {"measurement": "TYK2 Degradation (NOMO-1, 100 nM)", "setting": "[4]", "value": "B (B: <60% TYK2 degradation, and >20% TYK2 degradation)"}, {"measurement": "Reduction of TYK2 protein levels over a dose range (FIG. 2)", "setting": "[4]", "value": "concentration-dependently reduced the TYK2 proteins levels; also recorded: highly potent in reducing TYK2 protein levels"}, {"measurement": "Phosphorylation of STAT1 (Tyr701) and STAT3 (Tyr705) induced by IFNα (FIG. 3)", "setting": "[5]", "value": "concentration-dependently reduced phosphorylation of STAT1 (Tyr701) and STAT3 (Tyr705) induced by IFNα treatment; also recorded: significantly decreased STAT1/3 phosphorylation downstream of IFNα stimulation"}]}]}
